Article PMC11879280, “Antimicrobial activity of peptoids against Metallo-β-lactamase-producing Klebsiella pneumoniae, Acinetobacter baumannii, Pseudomonas aeruginosa, and other WHO priority pathogens, including Candida auris” (Journal of Applied Microbiology, 2025)
Like-named read-outs stand apart in the source and are kept apart here. Square brackets hold non-standard residues; d marks the D form. Ends that are not written are not given here. Peptide text beside a SMILES is read from it. Nspe(4-Br) = C[C@H](NCC(=O)O)c1ccc(Br)cc1; Nlys = NCCCCNCC(=O)O

Key:
[1] = test system: C. auris CBS10913
[2] = test system: C. auris CBS12373; test: Broth microdilution MIC; format: cell-based, Candida auris
[3] = test system: Enterobacteriaceae; test: Geometric mean MIC, therapeutic index and selectivity ratio, Enterobacteriaceae; format: cell-based; conditions: Enterobacteriaceae (E. coli, K. pneumoniae, and E. aerogenes)
Outline: (§1)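 Inoculum 5 × 10^5 CFU ml^−1 in CAMHB for antibiotics or MHB for peptidomimetics; incubated 37°C, 120 rpm, 16–20 h. Suspensions plated on Trypticase Soya Agar with phosphatidylcholine and Tween 80 for MBC/MFC. Geometric mean MIC computed across pathogens; therapeutic index calculated by formula.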

[4] = test system: A. baumannii 006
Outline: (§2)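 Cation-adjusted MHB for antibiotics, plain MHB for peptidomimetics; 5 × 10^5 CFU ml^−1; 16–20 h at 37°C, 120 rpm. Geometric mean MIC across pathogens calculated for peptoids.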

[5] = test system: S. aureus 04
Outline: as §2

[6] = test system: En. cloacae 005
Outline: as §2

[7] = test system: E. coli 0015
Outline: as §2

[8] = test system: E. coli 005
Outline: as §2

[9] = test system: S. aureus 117
Outline: as §2

[10] = test system: K. pneumoniae JIE2709
Outline: as §2

[11] = test system: Enteroc. faecalis NCTC 13 379
Outline: as §2

[12] = test system: S. aureus 38
Outline: as §2

[13] = test system: K. pneumoniae JIE2713
Outline: as §2

[14] = test system: P. aeruginosa AR-1270
Outline: as §2

[15] = test system: E. coli 0011
Outline: as §2

[16] = test system: A. baumannii 008
Outline: as §2

[17] = test system: En. cloacae 001
Outline: as §2

[18] = test system: A. baumannii 007
Outline: as §2

[19] = test system: En. cloacae 003
Outline: as §2

[20] = test system: A. baumannii ATCC 19 606
Outline: as §2

[21] = test system: K. pneumoniae JIE4212
Outline: as §2

[22] = test system: S. aureus 105
Outline: as §2

[23] = test system: C. auris strains; conditions: two C. auris strains
Outline: as §1

[24] = test system: ESKAPEE pathogens (all bacteria); test: Geometric mean MIC, therapeutic index and selectivity ratio, all bacteria; format: cell-based; conditions: across the 23 ESKAPEE strains
Outline: as §1

[25] = CBS 10 913, RPMI 1640 with MOPS, 5 × 10^3 CFU ml^−1, ≥90% reduction (≥50% for fluconazole)
[26] = CBS 12 373, RPMI 1640 with MOPS, 5 × 10^3 CFU ml^−1, ≥90% reduction (≥50% for fluconazole)
[27] = A. baumannii 006, MHB (melimine/Mel4 with 0.2% BSA, 0.01% acetic acid), mean MIC
[28] = S. aureus 004, MHB (melimine/Mel4 with 0.2% BSA, 0.01% acetic acid), mean MIC
[29] = En. cloacae 005, MHB (melimine/Mel4 with 0.2% BSA, 0.01% acetic acid), mean MIC
[30] = E. coli 0015, MHB (melimine/Mel4 with 0.2% BSA, 0.01% acetic acid), mean MIC
[31] = E. coli 005, MHB (melimine/Mel4 with 0.2% BSA, 0.01% acetic acid), mean MIC
[32] = S. aureus 117, MHB (melimine/Mel4 with 0.2% BSA, 0.01% acetic acid), mean MIC
[33] = K. pneumoniae JIE2709, MHB (melimine/Mel4 with 0.2% BSA, 0.01% acetic acid), mean MIC
[34] = Enteroc. faecalis NCTC 13 379, MHB (melimine/Mel4 with 0.2% BSA, 0.01% acetic acid), mean MIC
[35] = S. aureus 38, MHB (melimine/Mel4 with 0.2% BSA, 0.01% acetic acid), mean MIC
[36] = K. pneumoniae JIE2713, MHB (melimine/Mel4 with 0.2% BSA, 0.01% acetic acid), mean MIC
[37] = P. aeruginosa AR-1270, MHB (melimine/Mel4 with 0.2% BSA, 0.01% acetic acid), mean MIC
[38] = E. coli 0011, MHB (melimine/Mel4 with 0.2% BSA, 0.01% acetic acid), mean MIC
[39] = A. baumannii 008, MHB (melimine/Mel4 with 0.2% BSA, 0.01% acetic acid), mean MIC
[40] = En. cloacae 001, MHB (melimine/Mel4 with 0.2% BSA, 0.01% acetic acid), mean MIC
[41] = A. baumannii 007, MHB (melimine/Mel4 with 0.2% BSA, 0.01% acetic acid), mean MIC
[42] = En. cloacae 003, MHB (melimine/Mel4 with 0.2% BSA, 0.01% acetic acid), mean MIC
[43] = A. baumannii ATCC 19 606, MHB (melimine/Mel4 with 0.2% BSA, 0.01% acetic acid), mean MIC
[44] = K. pneumoniae JIE4212, MHB (melimine/Mel4 with 0.2% BSA, 0.01% acetic acid), mean MIC
[45] = S. aureus 105, MHB (melimine/Mel4 with 0.2% BSA, 0.01% acetic acid), mean MIC

C[C@@H](c1ccc(Br)cc1)N(CC(=O)N(CCCCN)CC(=O)N(CC(=O)N(CC(=O)N(CCCCN)CC(N)=O)[C@@H](C)c1ccc(Br)cc1)[C@@H](C)c1ccc(Br)cc1)C(=O)CN(C(=O)CNCCCCN)[C@@H](C)c1ccc(Br)cc1 [TM14] (H-[Nlys][Nspe(4-Br)][Nspe(4-Br)][Nlys][Nspe(4-Br)][Nspe(4-Br)][Nlys]-NH2)
MIC against C. auris [1, 25]: 15.6 µg/mL | MIC against C. auris ([1]; CBS10913): 11.5 µM | MIC against C. auris [2, 26]: 3.9 µg/mL | MIC against C. auris ([2]; CBS12373): 2.9 µM | Geometric mean MICE [3]: 31.3 µg/mL | MIC of peptidomimetics [4]; 006: 11.4 µM | MIC of peptidomimetics [4, 27]: 15.6 µg/mL | MIC of peptidomimetics [5]; 04: 5.7 µM | MIC of peptidomimetics [5, 28]: 7.8 µg/mL | MIC of peptidomimetics [6]: 45.9 µM | MIC of peptidomimetics [6, 29]: 62.5 µg/mL | MIC of peptidomimetics [7]; 0015: 23.0 µM | MIC of peptidomimetics [7, 30]: 31.3 µg/mL | MIC of peptidomimetics [8]; 005: 23.0 µM | MIC of peptidomimetics [8, 31]: 31.3 µg/mL | MIC of peptidomimetics [9]; 117: 5.7 µM | MIC of peptidomimetics [9, 32]: 7.8 µg/mL | MIC of peptidomimetics ([10]; JIE2709): 45.9 µM | MIC of peptidomimetics [10, 33]: 62.5 µg/mL | MIC of peptidomimetics [11, 34]: 7.8 µg/mL | MIC of peptidomimetics ([11]; NCTC 13): 5.7 µM | MIC of peptidomimetics [12]; 38: 2.9 µM | MIC of peptidomimetics [12, 35]: 3.9 µg/mL | MIC of peptidomimetics ([13]; JIE2713): 5.7 µM | MIC of peptidomimetics [13, 36]: 7.8 µg/mL | MIC of peptidomimetics ([14]; AR-1270): 45.9 µM | MIC of peptidomimetics [14, 37]: 62.5 µg/mL | MIC of peptidomimetics [15]; 0011: 23.0 µM | MIC of peptidomimetics [15, 38]: 31.3 µg/mL | MIC of peptidomimetics [16]; 008: 23.0 µM | MIC of peptidomimetics [16, 39]: 31.3 µg/mL | MIC of peptidomimetics [17]: 11.5 µM | MIC of peptidomimetics [17, 40]: 15.6 µg/mL | MIC of peptidomimetics [18]; 007: 23.0 µM | MIC of peptidomimetics [18, 41]: 31.3 µg/mL | MIC of peptidomimetics [19]: 45.9 µM | MIC of peptidomimetics [19, 42]: 62.5 µg/mL | MIC of peptidomimetics [20, 43]: 31.3 µg/mL | MIC of peptidomimetics ([20]; ATCC 19): 23.0 µM | MIC of peptidomimetics ([21]; JIE4212): 23.0 µM | MIC of peptidomimetics [21, 44]: 31.3 µg/mL | MIC of peptidomimetics [22]; 105: 2.9 µM | MIC of peptidomimetics [22, 45]: 3.9 µg/mL | Geometric mean MICCA [23]: 7.8 µg/mL | Geometric mean MIC, all bacteria [24]: 19.9 µg/mL | Geometric mean MIC, all bacteria ([24]; value in brackets): 14.6 µM

KNKRKRRRRRRGGRRRR [Mel4]
MIC against C. auris [1, 25]: 125 µg/mL | MIC against C. auris [2, 26]: 3.9 µg/mL | Geometric mean MICE [3]: 164.9 µg/mL | MIC of peptidomimetics [4, 27]: 62.5 µg/mL | MIC of peptidomimetics [5, 28]: 62.5 µg/mL | MIC of peptidomimetics [6, 29]: 250 µg/mL | MIC of peptidomimetics [7, 30]: 62.5 µg/mL | MIC of peptidomimetics [8, 31]: 250 µg/mL | MIC of peptidomimetics [9, 32]: 62.5 µg/mL | MIC of peptidomimetics [10, 33]: 62.5 µg/mL | MIC of peptidomimetics [11, 34]: 500 µg/mL | MIC of peptidomimetics [12, 35]: 62.5 µg/mL | MIC of peptidomimetics [13, 36]: 250 µg/mL | MIC of peptidomimetics [14, 37]: 500 µg/mL | MIC of peptidomimetics [15, 38]: 62.5 µg/mL | MIC of peptidomimetics [16, 39]: 250 µg/mL | MIC of peptidomimetics [17, 40]: 250 µg/mL | MIC of peptidomimetics [18, 41]: 250 µg/mL | MIC of peptidomimetics [19, 42]: 250 µg/mL | MIC of peptidomimetics [20, 43]: 125 µg/mL | MIC of peptidomimetics [21, 44]: 250 µg/mL | MIC of peptidomimetics [22, 45]: 62.5 µg/mL | Geometric mean MICCA [23]: 22.1 µg/mL | Geometric mean MIC, all bacteria [24]: 149.8 µg/mL | Geometric mean MIC, all bacteria ([24]; value in brackets): 63.8 µM

TLISWIKNKRKQRPRVSRRRRRRGGRRRR [Melimine]
MIC against C. auris [1, 25]: 125 µg/mL | MIC against C. auris ([1]; CBS 10 913, value in brackets): 33.0 µM | MIC against C. auris [2, 26]: 3.9 µg/mL | MIC against C. auris ([2]; CBS 12 373, value in brackets): 1.03 µM | Geometric mean MICE [3]: 189.5 µg/mL | MIC of peptidomimetics [4, 27]: 62.5 µg/mL | MIC of peptidomimetics ([4]; A. baumannii 006, value in brackets): 16.5 µM | MIC of peptidomimetics [5, 28]: 31.3 µg/mL | MIC of peptidomimetics ([5]; S. aureus 004, value in brackets): 8.2 µM | MIC of peptidomimetics [6, 29]: 250 µg/mL | MIC of peptidomimetics ([6]; En. cloacae 005, value in brackets): 66.0 µM | MIC of peptidomimetics [7, 30]: 125 µg/mL | MIC of peptidomimetics ([7]; E. coli 0015, value in brackets): 33.0 µM | MIC of peptidomimetics [8, 31]: 250 µg/mL | MIC of peptidomimetics ([8]; E. coli 005, value in brackets): 66.0 µM | MIC of peptidomimetics [9, 32]: 31.3 µg/mL | MIC of peptidomimetics ([9]; S. aureus 117, value in brackets): 8.2 µM | MIC of peptidomimetics [10, 33]: 500 µg/mL | MIC of peptidomimetics [11, 34]: 500 µg/mL | MIC of peptidomimetics [12, 35]: 31.3 µg/mL | MIC of peptidomimetics ([12]; S. aureus 38, value in brackets): 8.2 µM | MIC of peptidomimetics [13, 36]: 125 µg/mL | MIC of peptidomimetics ([13]; K. pneumoniae JIE2713, value in brackets): 33.0 µM | MIC of peptidomimetics [14, 37]: 500 µg/mL | MIC of peptidomimetics [15, 38]: 125 µg/mL | MIC of peptidomimetics ([15]; E. coli 0011, value in brackets): 33.0 µM | MIC of peptidomimetics [16, 39]: 250 µg/mL | MIC of peptidomimetics ([16]; A. baumannii 008, value in brackets): 66.0 µM | MIC of peptidomimetics [17, 40]: 125 µg/mL | MIC of peptidomimetics ([17]; En. cloacae 001, value in brackets): 33.0 µM | MIC of peptidomimetics [18, 41]: 125 µg/mL | MIC of peptidomimetics ([18]; A. baumannii 007, value in brackets): 33.0 µM | MIC of peptidomimetics [19, 42]: 125 µg/mL | MIC of peptidomimetics ([19]; En. cloacae 003, value in brackets): 33.0 µM | MIC of peptidomimetics [20, 43]: 62.5 µg/mL | MIC of peptidomimetics ([20]; A. baumannii ATCC 19 606, value in brackets): 16.5 µM | MIC of peptidomimetics [21, 44]: 250 µg/mL | MIC of peptidomimetics ([21]; K. pneumoniae JIE4212, value in brackets): 66.0 µM | MIC of peptidomimetics [22, 45]: 31.3 µg/mL | MIC of peptidomimetics ([22]; S. aureus 105, value in brackets): 8.2 µM | Geometric mean MICCA [23]: 22.1 µg/mL | Geometric mean MIC, all bacteria [24]: 132.8 µg/mL | Geometric mean MIC, all bacteria ([24]; value in brackets): 35.1 µM
